For the first test, the target named is T1, chimeric human H3 receptor (Homo sapiens, UniProt Q9Y5N1, E19D).
T1 construct: made in house; host or cells: Sf9 insect cells (baculovirus infection); P2 membrane preparation
T1 sequence (Q9Y5N1 with tags, fused parts or gaps E19D): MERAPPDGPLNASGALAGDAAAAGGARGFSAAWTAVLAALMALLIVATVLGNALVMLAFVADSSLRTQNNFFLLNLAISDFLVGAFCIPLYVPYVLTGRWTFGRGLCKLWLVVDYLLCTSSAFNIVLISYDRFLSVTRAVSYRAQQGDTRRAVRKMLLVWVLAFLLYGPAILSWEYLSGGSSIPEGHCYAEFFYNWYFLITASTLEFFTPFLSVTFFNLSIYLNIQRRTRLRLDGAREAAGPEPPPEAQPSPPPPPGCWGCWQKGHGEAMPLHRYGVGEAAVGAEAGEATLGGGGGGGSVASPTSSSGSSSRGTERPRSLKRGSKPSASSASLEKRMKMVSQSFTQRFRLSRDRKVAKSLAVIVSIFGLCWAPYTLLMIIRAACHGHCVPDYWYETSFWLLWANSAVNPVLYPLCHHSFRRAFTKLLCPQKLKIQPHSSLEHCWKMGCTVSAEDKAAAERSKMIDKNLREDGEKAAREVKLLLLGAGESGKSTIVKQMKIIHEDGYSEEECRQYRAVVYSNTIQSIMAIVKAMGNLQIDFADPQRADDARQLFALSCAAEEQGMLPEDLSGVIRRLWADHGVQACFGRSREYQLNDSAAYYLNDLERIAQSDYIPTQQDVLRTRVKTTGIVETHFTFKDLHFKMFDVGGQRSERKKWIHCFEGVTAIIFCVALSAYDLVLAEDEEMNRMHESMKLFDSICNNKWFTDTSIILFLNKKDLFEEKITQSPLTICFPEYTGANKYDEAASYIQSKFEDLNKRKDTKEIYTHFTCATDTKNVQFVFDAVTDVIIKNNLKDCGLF
The test can be described thus: Chimeric human H3 receptor GTP binding assay (agonist-stimulated GTP-gamma35S binding, Example 7). In kind it is biochemical.
Conditions: not given
The source says:
This Example illustrates a representative assay for evaluating agonist-stimulated GTP-gamma^35S binding (“GTP binding”) activity. […] This agonist-stimulated GTP binding activity can also be used to detect partial agonism mediated by antagonist compounds. A compound analyzed in this assay is referred to herein as a “test compound.”
Four independent baculoviral stocks (one directing the expression of the chimeric human H3 receptor and three directing the expression of each of the three subunits of a heterotrimeric G-protein) are used to infect a culture of Sf9 cells as described above. P2 membranes are prepared as described above, and agonist-stimulated GTP binding on the P2 membranes is assessed using histamine (Sigma Chemical Co., St. Louis, Mo.) as agonist in order to ascertain that the receptor/G-protein-alpha-beta-gamma combination(s) yield a functional response as measured by GTP binding. P2 membranes are resuspended by Dounce homogenization (tight pestle) in GTP binding assay buffer (50 mM Tris pH 7.4, 120 mM NaCl, 5 mM MgCl2, 2 mM EGTA, 1 mg/ml BSA, 0.2 mg/ml bacitracin, 0.02 mg/ml aprotinin, 0.01 mg/ml saponin, 10 μM GDP) and added to assay tubes at a concentration of 35 μg protein/reaction tube. […] In competition experiments, non-radiolabeled test compounds are added to separate reactions at concentrations ranging from 10^−10 M to 10^−6 M along with 1 μM histamine to yield a final volume of 0.20 ml.
Neutral antagonists are antagonists that are substantially free of inherent agonist activity, and include those test compounds that reduce the histamine-stimulated GTP binding activity towards, but not below, baseline levels. In contrast, in the absence of added histamine, inverse agonists reduce the GTP binding activity of the receptor-containing membranes below baseline.
After a 60-min incubation at room temperature, reactions are terminated by vacuum filtration over WHATMAN GF/C filters (pre-soaked in wash buffer, 0.1% BSA) followed by washing with ice-cold wash buffer (50 mM Tris pH 7.4, 120 mM NaCl). The amount of receptor-bound (and thereby membrane-bound) GTP-gamma^35S is determined by measuring the filter-bound radioactivity, preferably by liquid scintillation spectrometry of the washed filters. […] Data is expressed as percent above basal (baseline). The results of GTP binding experiments are analyzed using SIGMAPLOT software (SPSS Inc., Chicago, Ill.).
IC50 values are calculated by non-linear regression analysis of dose-response curves using Kaleidograph (Synergy Software, Reading, Pa.).
(Binding of GTPγS marks nucleotide exchange on a G protein.)
On to `CC(C)N1CCN(C(=O)CN2CCN(c3cccc(F)c3)CC2)CC1` [Compound 303, 1-(3-fluorophenyl)-4-[2-(4-isopropylpiperazin-1-yl)-2-oxoethyl]piperazine], for which the Ki is < 1 µM.

Staying with this test, now noted: assay of Example 7; symbol * in column headed Ki of Table II; read-out: Ki.
On to `O=C(CN1CCN(c2ccc(-c3cccc(Cl)c3)cc2)CC1)N1CCN(C2CCC2)CC1` [Compound 300, 1-(3′-chlorobiphenyl-4-yl)-4-[2-(4-cyclobutylpiperazin-1-yl)-2-oxoethyl]piperazine], for which the Ki is < 1 µM.

For `O=C(CN1CCN(c2cccc(Cl)c2)CC1)N1CCN(C2CCC2)CC1` [Compound 301, 1-(3-chlorophenyl)-4-[2-(4-cyclobutylpiperazin-1-yl)-2-oxoethyl]piperazine], the Ki was < 1 µM. Still for that read-out and setting: the same measure for `CC(C)N1CCN(C(=O)CN2CCN(c3cccc(Cl)c3)CC2)CC1` [Compound 302, 1-(3-chlorophenyl)-4-[2-(4-isopropylpiperazin-1-yl)-2-oxoethyl]piperazine]: < 1 µM; for `CC(=O)c1ccc(N2CCN(CC(=O)N3CCN(C4CCC4)CC3C)CC2)cc1` (stereo not shown) [Compound 304, 1-(4-{4-[2-(4-cyclobutyl-2-methylpiperazin-1-yl)-2-oxoethyl]piperazin-1-yl}phenyl)ethanone]: < 1 µM; for `CC(=O)c1ccc(N2CCN(CC(=O)N3CCN(C4CCC4)CC3)[C@H](C)C2)cc1` [Compound 306, 1-(4-{4-[2-(4-cyclobutylpiperazin-1-yl)-2-oxoethyl]-3-methylpiperazin-1-yl}phenyl)ethanone]: < 1 µM.

As for `CC(=O)c1ccc(N2CCN(CC(=O)N3CCN(C4CCC4)CC3)[C@@H](C)C2)cc1` [Compound 307, 1-(4-{4-[2-(4-cyclobutylpiperazin-1-yl)-2-oxoethyl]-3-methylpiperazin-1-yl}phenyl)ethanone], the Ki is < 1 µM. `CC(=O)c1cccc(-c2ccc(N3CCN(CC(=O)N4CCN(C5CCC5)CC4)CC3)cc2)c1` [Compound 308, 1-(4′-{4-[2-(4-cyclobutylpiperazin-1-yl)-2-oxoethyl]piperazin-1-yl}biphenyl-3-yl)ethanone]: the Ki is < 1 µM.

Consider `CC(=O)c1ccc(-c2ccc(N3CCN(CC(=O)N4CCN(C5CCC5)CC4)CC3)cc2)cc1` [Compound 309, 1-(4′-{4-[2-(4-cyclobutylpiperazin-1-yl)-2-oxoethyl]piperazin-1-yl}biphenyl-4-yl)ethanone], for which the Ki is < 1 µM. On the same count and under the same terms, the same measure for `CC(=O)c1ccc(N2CCN(CC(=O)N3CCN(C4CCC4)CC3)CC2)c2ccccc12` [Compound 310, 1-(4-{4-[2-(4-cyclobutylpiperazin-1-yl)-2-oxoethyl]piperazin-1-yl}-1-naphthyl)ethanone]: < 1 µM. Still for that read-out and setting: the result for `CC(=O)c1ccc(N2CCN(CC(=O)N3CCN(C4CCC4)CC3)CC2)c(F)c1` [Compound 311, 1-(4-{4-[2-(4-cyclobutylpiperazin-1-yl)-2-oxoethyl]piperazin-1-yl}-3-fluorophenyl)ethanone] reads < 1 µM; that for `CCC(=O)c1ccc(N2CCN(CC(=O)N3CCN(C4CCC4)CC3)CC2)cc1` [Compound 312, 1-(4-{4-[2-(4-cyclobutylpiperazin-1-yl)-2-oxoethyl]piperazin-1-yl}phenyl)propan-1-one], < 1 µM; that for `CC(C)C(=O)c1ccc(N2CCN(CC(=O)N3CCN(C4CCC4)CC3)CC2)cc1` [Compound 313, 1-(4-{4-[2-(4-cyclobutylpiperazin-1-yl)-2-oxoethyl]piperazin-1-yl}phenyl)-2-methylpropan-1-one], < 1 µM. As for `CC(C)(C)C(=O)c1ccc(N2CCN(CC(=O)N3CCN(C4CCC4)CC3)CC2)cc1` [Compound 314, 1-(4-{4-[2-(4-cyclobutylpiperazin-1-yl)-2-oxoethyl]piperazin-1-yl}phenyl)-2,2-dimethylpropan-1-one], the Ki is < 1 µM. Still for that read-out and setting: the result for `CC(=O)c1ccc(N2CCN(CC(=O)N3CCN(C4CCC4)CC3)CC2)cc1` [Compound 315, 1-(4-{4-[2-(4-cyclobutylpiperazin-1-yl)-2-oxoethyl]piperazin-1-yl}phenyl)ethanone] reads < 1 µM; that for `O=C(CN1CCN(c2ccc(C(=O)N3CCCCCC3)cc2)CC1)N1CCN(C2CCC2)CC1` [Compound 317, 1-(4-{4-[2-(4-cyclobutylpiperazin-1-yl)-2-oxoethyl]piperazin-1-yl}benzoyl)azepane], < 1 µM. The same measure, in the same setting: the result for `COc1cc(N2CCN(CC(=O)N3CCN(C4CCC4)CC3)CC2)ccc1C(C)=O` [Compound 318, 1-(4-{4-[2-(4-cyclobutylpiperazin-1-yl)-2-oxoethyl]piperazin-1-yl}-2-methoxyphenyl)ethanone] reads < 1 µM. Still for that read-out and setting: the result for `COc1cc(C(C)=O)ccc1N1CCN(CC(=O)N2CCN(C3CCC3)CC2)CC1` [Compound 319, 1-(4-{4-[2-(4-cyclobutylpiperazin-1-yl)-2-oxoethyl]piperazin-1-yl}-3-methoxyphenyl)ethanone] reads < 1 µM; that for `O=C(CN1CCN(c2ccc(N3CCCC3=O)cc2)CC1)N1CCN(C2CCC2)CC1` [Compound 320, 1-(4-{4-[2-(4-cyclobutylpiperazin-1-yl)-2-oxoethyl]piperazin-1-yl}phenyl)pyrrolidin-2-one], < 1 µM. Take `CC(=O)c1ccc(N2CCN(CC(=O)N3CCN(C4CCCCC4)CC3)CC2)cc1` [Compound 321, 1-(4-{4-[2-(4-cyclohexylpiperazin-1-yl)-2-oxoethyl]piperazin-1-yl}phenyl)ethanone]: the Ki was < 1 µM.

As to `CC(=O)c1ccc(N2CCC(C(C)(C)C(=O)N3CCN(C4CCCC4)CC3)CC2)cc1` [Compound 322, 1-(4-{4-[2-(4-cyclopentylpiperazin-1-yl)-1,1-dimethyl-2-oxoethyl]piperidin-1-yl}phenyl)ethanone], the Ki was < 1 µM. Regarding `CC(=O)c1ccc(N2CCN(C(C)C(=O)N3CCN(C4CCCC4)CC3)CC2)cc1` (stereo not shown) [Compound 323, 1-(4-{4-[2-(4-cyclopentylpiperazin-1-yl)-1-methyl-2-oxoethyl]piperazin-1-yl}phenyl)ethanone], the Ki was < 1 µM. Take `CCC(=O)c1ccc(N2CCN(CC(=O)N3CCN(C4CCCC4)CC3)CC2)cc1` [Compound 324, 1-(4-{4-[2-(4-cyclopentylpiperazin-1-yl)-2-oxoethyl]piperazin-1-yl}phenyl)propan-1-one]: the Ki was < 1 µM. Still for that read-out and setting: the same measure for `CC(C)C(=O)c1ccc(N2CCN(CC(=O)N3CCN(C4CCCC4)CC3)CC2)cc1` [Compound 325, 1-(4-{4-[2-(4-cyclopentylpiperazin-1-yl)-2-oxoethyl]piperazin-1-yl}phenyl)-2-methylpropan-1-one]: < 1 µM.

As to `CC(C)(C)C(=O)c1ccc(N2CCN(CC(=O)N3CCN(C4CCCC4)CC3)CC2)cc1` [Compound 326, 1-(4-{4-[2-(4-cyclopentylpiperazin-1-yl)-2-oxoethyl]piperazin-1-yl}phenyl)-2,2-dimethylpropan-1-one], the Ki was < 1 µM.

On to `CC(=O)c1ccc(N2CCN(CC(=O)N3CCN(C4CCCC4)CC3)CC2)cc1` [Compound 327, 1-(4-{4-[2-(4-cyclopentylpiperazin-1-yl)-2-oxoethyl]piperazin-1-yl}phenyl)ethanone], for which the Ki was < 1 µM. The same measure, in the same setting: the same measure for `CC(=O)c1ccc(N2CCN(CC(=O)N3CCN(CC(C)C)CC3)CC2)cc1` [Compound 328, 1-(4-{4-[2-(4-isobutylpiperazin-1-yl)-2-oxoethyl]piperazin-1-yl}phenyl)ethanone]: < 1 µM; for `CC(=O)c1ccc(N2CCN(CC(=O)N3CCN(C(C)C)CC3)CC2)cc1` [Compound 329, 1-(4-{4-[2-(4-isopropylpiperazin-1-yl)-2-oxoethyl]piperazin-1-yl}phenyl)ethanone]: < 1 µM.

As to `CCC(C)N1CCN(C(=O)CN2CCN(c3ccc(C(C)=O)cc3)CC2)CC1` (stereo not shown) [Compound 330, 1-(4-{4-[2-(4-sec-butylpiperazin-1-yl)-2-oxoethyl]piperazin-1-yl}phenyl)ethanone], the Ki was < 1 µM.

Turning to `CC(O)c1ccc(N2CC3CC2CN3CC(=O)N2CCN(C3CCC3)CC2)cc1` (stereo not shown) [Compound 331, 1-(4-{5-[2-(4-cyclobutylpiperazin-1-yl)-2-oxoethyl]-2,5-diazabicyclo[2.2.1]hept-2-yl}phenyl)ethanol], the inhibition constant (Ki) was < 1 µM. For `CC(=O)c1ccc(N2C(=O)C3(CCN(CC(=O)N4CCN(C5CCC5)CC4)CC3)c3ccccc32)cc1` [Compound 332, 1-(4-acetylphenyl)-1′-[2-(4-cyclobutylpiperazin-1-yl)-2-oxoethyl]spiro[indole-3,4′-piperidin]-2(1H)-one], the Ki is < 1 µM.

One may read the Ki as the equilibrium dissociation constant of an inhibitor or competing ligand from its target.

The values are drawn from US7851474B2, “Dipiperazinyl ketones and related analogues” (Neurogen Corporation, priority 2005, dated 2010).
